According to patent US20230149418A1, “METHODS AND SYNERGIC COMPOSITIONS FOR TREATING VIRAL INFECTIONS” (HADASIT MEDICAL RESEARCH SERVICES AND DEVELOPMENT LTD., priority 2018, published 2023):
Like-named read-outs stand apart in the source and are kept apart here. One block for each compound: values may come before it.

Experiments:
HCMV TB40/E strain = assay: Plaque reduction assay, HCMV TB40/E strain in human foreskin fibroblasts, single drugs and 2-drug combinations (Chou-Talalay); format: cell-based, human cytomegalovirus; conditions: for Dose of drug alone at Fa 0.75: Fa 0.75, drug alone; for Dose of drug alone at Fa 0.9: Fa 0.9, drug alone; for Dose of drug alone at Fa 0.95: Fa 0.95, drug alone; for Dose of drug alone at Fa 0.97: Fa 0.97, drug alone; for Dose of drug alone at Fa 0.05: Fa (fraction of virus affected) 0.05, drug alone
Procedure: The CMV strain used was TB40/E. The CMV strain was propagated and tittered in human foreskin fibroblasts (HFF) cells. Cell-free virus stocks and cell-associated clinical isolates were maintained at -70° C. Viral stocks were tittered by serial 10-fold dilution in 24-well tissue culture plates containing HFF monolayers overlaid with agarose-medium. After incubation for 7 to 14 days, plaques were enumerated, and virus titer was determined as plaque forming units (PFU) per milliliter (ml). Stocks of artemisone (10 mM), ganciclovir (10 mM), BDCRB (120 mM), brincidofovir (1 mM), maribavir (10 mM) and letermovir (10 mM) were prepared in DMSO or H2O.
Cell monolayers were inoculated in 24-well culture plates with 0.2 ml of virus suspension containing 60 to 100 PFU per well. After adsorption for 60 -120 min at 37° C., the inoculum was removed, and culture medium was replaced with agarose-medium overlay containing serial concentrations of the tested drug(s). Plates were incubated for 7-14 days at 37° C. in a 5% CO2 incubator. Plaques were then counted microscopically.
The effect of a combination of artemisone with each one of ganciclovir (HCMV DNA polymerase), BDCRB (HCMV terminase inhibitor), brincidofovir (HCMV DNA polymerase inhibitor), maribavir (HCMV UL97 kinase inhibitor) and letermovir (HCMV terminase inhibitor) was evaluated by the classical plaque reduction assay. The in vitro activity of each of the above mentioned antiviral compounds alone or in combination with artemisone was evaluated by the classical plaque reduction assay, using HCMV TB40/E strain in human foreskin fibroblasts cells. The concentration of each antiviral compound that reduced the plaque formation by 50% (EC50) was determined as previously described in Wolf DG et al., J Clin Invest. 1995;95:257-63. The individual EC50 values in human foreskin fibroblasts were as follows: artemisone EC50 - 1 µM; ganciclovir EC50 - 1 µM; maribavir EC50 - 1 µM; BDCRB EC50 - 0.5 µM; letermovir EC50 - 5 nM; brincidofovir EC50 -1 nM.
For the 2-drug combination studies, the EC50 value of each drug was used to determine an equipotent ratio between the two compounds (EC50 of drug 1 / EC50 of drug 2). Serial 2-fold dilutions of a mixture comprising artemisone and another antiviral compound at initial concentrations equivalent to 4-fold the equipotent ratio were added to duplicate wells of cells infected with HCMV. Overall, 5 different concentrations of the drug combinations were used: 4xEC50, 2xEC50, 1xEC50,0.5xEC50,0.25xEC50. The cell monolayers were inoculated in 24-well culture plates with 0.2 ml of virus suspension containing 60 to 100 plaque-forming unit (PFU) per well; the Multiplicity of infection (MOI) was 0.001-0.002 PFU/cell).
D1 and D2 are the doses of the two drugs, and Dx is a dose causing to x% effect (LD0.5 is EC50). Briefly, the software extrapolated a combination index (CI) representing the interaction between the two drugs at specified levels of virus inhibition (that is 50%, 75%, 90%, 95%) versus the percentages of the inhibition induced by each drug alone and in combination (equation 16 in Chou).
A weighted average CI (CIwt) was then calculated for each combination as (CI50+ 2×CI75+3×CI90+4×CI95)/10, to access the drug combinatory effects.
The dose reduction index (DRI) was then calculated as described in Chou. In general, the DRI measures the fold of dose reduction of each drug in the combination at a given effect level compared with the doses of each drug alone. For each one of the below tables: Fa - fraction of virus affected; doses are provided in µm.

HCMV = assay: Ex vivo HCMV infection of human decidual (placental) tissue organ cultures, viral mRNA copy number; format: cell-based, human cytomegalovirus; conditions: for EC50: Human betaherpesvirus 5; for Dose of drug alone at Fa 0.9: Fa 0.9, drug alone; for DRI (dose reduction index): combination artemisone + maribavir
Procedure: Organ cultures were washed and stored at -80° C. until assayed. RNA was extracted, and the purified RNA samples were subjected to reverse transcription (RT), followed by quantitative real-time PCR. The viral mRNA copy number was normalized by the cellular housekeeping gene β-actin.
We employed our model of HCMV infection in human decidual tissues (representing the maternal aspect of the chimeric human placenta), maintained as multi-cell-type 3D organ cultures as described in Weisblum Y. et al. J Virol 2011 85(24): 13204-13. doi: 10.1128/JVI.05749-11. For infection of the organ cultures, decidual tissues were placed in 48-well plates and inoculated with the virus (5x10^4 plaque forming units (PFU)/well) for 12 h to allow effective viral adsorption. The tissues were further monitored for viral infection and spread for 7 days. For determination of the drug EC50 values of in the tissues, serial drug concentrations: each drug separately or combination of the drugs were added to the infected decidual tissues during viral adsorption at any further medium replacement to keep the drug concentration constant. The results were compared to samples to which the drug was not added. The EC50 was defined as the drug concentration required to reduce the viral mRNA copy number by 50%. The effect of drug combinations was tested in accordance with the Chou-Talalay method. All comparative experiments were performed in parallel on tissues from the same donor.
The dose reduction index (DRI) was then calculated as described in Chou. As described earlier, the DRI is a measure of how many folds the dose of each drug in a synergistic combination may be reduced at a given effect level compared with the doses of each drug alone. For each one of the below tables: Fa - fraction of virus affected; doses are provided in µm.

[1] = Human betaherpesvirus 5, Fibroblast, Fa 0.5, drug alone, read-out: Dose of drug alone at Fa 0.5
[2] = Human betaherpesvirus 5, Fibroblast, drug alone, human foreskin fibroblasts, read-out: EC50 (concentration that reduced the plaque formation by 50%)

Compound: COc1cccc(N2CCN(C3=Nc4c(F)cccc4[C@H](CC(=O)O)N3c3cc(C(F)(F)F)ccc3OC)CC2)c1 [letermovir]
- Dose of drug alone at Fa 0.75 (HCMV TB40/E strain): 0.00438 µm
- Dose of drug alone at Fa 0.9 (HCMV TB40/E strain): 0.00952 µm
- Dose of drug alone at Fa 0.95 (HCMV TB40/E strain): 0.01614 µm
- Dose of drug alone at Fa 0.97 (HCMV TB40/E strain): 0.02351 µm
- Dose of drug alone at Fa 0.05 (HCMV TB40/E strain): 2.51E-4 µm
- EC50 (HCMV TB40/E strain; [1]): 2.01 nM
- EC50 (HCMV TB40/E strain; [2]): 5 nM
- DRI (dose reduction index) (HCMV TB40/E strain; combination artemisone + letermovir, Fa 0.05): 0.5226
- DRI (dose reduction index) (HCMV TB40/E strain; combination artemisone + letermovir, Fa 0.5): 1.044
- DRI (dose reduction index) (HCMV TB40/E strain; combination artemisone + letermovir, Fa 0.75): 1.351
- DRI (dose reduction index) (HCMV TB40/E strain; combination artemisone + letermovir, Fa 0.9): 1.75
- DRI (dose reduction index) (HCMV TB40/E strain; combination artemisone + letermovir, Fa 0.9, listed as Let): 1.749
- DRI (dose reduction index) (HCMV TB40/E strain; combination artemisone + letermovir, Fa 0.95): 2.084
- DRI (dose reduction index) (HCMV TB40/E strain; combination artemisone + letermovir, Fa 0.97): up to 2.4
- DRI (dose reduction index) (HCMV TB40/E strain; combination artemisone + letermovir, Fa 0.97, listed as Let): 2.362

- EC50 (HCMV; ex vivo, Fa 0.5, drug alone, read-out: Dose of drug alone at Fa 0.5): 186 nM
- EC50 (HCMV; sole drug, ex vivo decidual tissues, read-out: EC50 (concentration required to reduce the viral mRNA copy number by 50%)): 250 nM
Compound: CC(C)Nc1nc2cc(Cl)c(Cl)cc2n1[C@H]1O[C@@H](CO)[C@H](O)[C@@H]1O [maribavir]
- Dose of drug alone at Fa 0.75 (HCMV TB40/E strain): 0.8994 µm
- Dose of drug alone at Fa 0.9 (HCMV TB40/E strain): 3.458 µm
- Dose of drug alone at Fa 0.95 (HCMV TB40/E strain): 8.644 µm
- Dose of drug alone at Fa 0.97 (HCMV TB40/E strain): 16.5865 µm
- Dose of drug alone at Fa 0.05 (HCMV TB40/E strain): 0.00633 µm
- EC50 (HCMV TB40/E strain; [1]): 234 nM
- EC50 (HCMV TB40/E strain; [2]): 1000 nM
- DRI (dose reduction index) (HCMV TB40/E strain; combination artemisone + maribavir, Fa 0.05): 2.039
- DRI (dose reduction index) (HCMV TB40/E strain; combination artemisone + maribavir, Fa 0.5): 5.884
- DRI (dose reduction index) (HCMV TB40/E strain; combination artemisone + maribavir, Fa 0.75): 8.738
- DRI (dose reduction index) (HCMV TB40/E strain; combination artemisone + maribavir, Fa 0.9): 12.98
- DRI (dose reduction index) (HCMV TB40/E strain; combination artemisone + maribavir, Fa 0.9, listed as MBV): 12.9771
- DRI (dose reduction index) (HCMV TB40/E strain; combination artemisone + maribavir, Fa 0.95): 16.9821
- DRI (dose reduction index) (HCMV TB40/E strain; combination artemisone + maribavir, Fa 0.97): 20.6
- DRI (dose reduction index) (HCMV TB40/E strain; combination artemisone + maribavir, Fa 0.97, listed as MBV): 20.5640
- Dose of drug alone at Fa 0.05 (HCMV; ex vivo, Fa 0.05, drug alone): 0.01861 µm
- Dose of drug alone at Fa 0.75 (HCMV; ex vivo, Fa 0.75, drug alone): 0.4396 µm
- Dose of drug alone at Fa 0.9 (HCMV; ex vivo): 1.03 µm
- Dose of drug alone at Fa 0.9 (HCMV; ex vivo, listed as MBV): 1.038 µm
- Dose of drug alone at Fa 0.95 (HCMV; ex vivo, Fa 0.95, drug alone): 1.862 µm
- Dose of drug alone at Fa 0.97 (HCMV; ex vivo, Fa 0.97, drug alone): 2.822 µm
- DRI (dose reduction index) (HCMV; ex vivo, Fa 0.05): 0.66
- DRI (dose reduction index) (HCMV; ex vivo, Fa 0.5): 0.982
- DRI (dose reduction index) (HCMV; ex vivo, Fa 0.75): 1.139
- DRI (dose reduction index) (HCMV; ex vivo, Fa 0.9): 1.3
- DRI (dose reduction index) (HCMV; ex vivo, Fa 0.9, listed as MBV): 1.321
- DRI (dose reduction index) (HCMV; ex vivo, Fa 0.95, listed as MBV): 1.461
- DRI (dose reduction index) (HCMV; ex vivo, Fa 0.97): 1.57

Compound: brincidofovir
- EC50 (HCMV TB40/E strain; Fa 0.5, drug alone, read-out: Dose of drug alone at Fa 0.5): 0.649 nM
- Dose of drug alone at Fa 0.75 (HCMV TB40/E strain): 0.001 µm
- Dose of drug alone at Fa 0.9 (HCMV TB40/E strain): 0.002 µm
- Dose of drug alone at Fa 0.95 (HCMV TB40/E strain): 0.002 µm
- Dose of drug alone at Fa 0.97 (HCMV TB40/E strain): 0.003 µm
- Dose of drug alone at Fa 0.05 (HCMV TB40/E strain): 1.87E-4 µm
- DRI (dose reduction index) (HCMV TB40/E strain; combination artemisone + brincidofovir, Fa 0.05): 1.43
- DRI (dose reduction index) (HCMV TB40/E strain; combination artemisone + brincidofovir, Fa 0.5): 1.48
- DRI (dose reduction index) (HCMV TB40/E strain; combination artemisone + brincidofovir, Fa 0.75): 1.5
- DRI (dose reduction index) (HCMV TB40/E strain; combination artemisone + brincidofovir, Fa 0.9): up to 1.5
- DRI (dose reduction index) (HCMV TB40/E strain; combination artemisone + brincidofovir, Fa 0.9, listed as BCV): 1.52
- DRI (dose reduction index) (HCMV TB40/E strain; combination artemisone + brincidofovir, Fa 0.95): 1.53
- DRI (dose reduction index) (HCMV TB40/E strain; combination artemisone + brincidofovir, Fa 0.97): 1.54
- EC50 (HCMV TB40/E strain; drug alone, human foreskin fibroblasts, read-out: EC50 (concentration that reduced the plaque formation by 50%)): 1 nM
